PubChem BioAssay (NCI)
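Protocol summary: plate cells (96-well), add compound at 5 concentrations, incubate 48 h, interpolate endpoints linearly. The concentration for 50% growth inhibition is given as GI50. TGI is the concentration that stops growth completely.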 *1 amine or outer side, *2 acyl side, *3 side chain or, on linkers, in order; H or OH if unused. Where a SMILES comes first, the peptide text is derived from it. Bridges are numbered along the chain shown (N, C = ends). [ ]: non-standard residue; d: D form. Adda = CO[C@@H](Cc1ccccc1)[C@@H](C)/C=C(C)/C=C/[C@H](N[*:1])[C@H](C)C(=O)[*:2]; dAsp(3S-Me) = C[C@H](C(=O)[*:3])[C@@H](N[*:1])C(=O)[*:2]; d(γGlu) = O=C(O)[C@@H](CCC(=O)[*:2])N[*:1]; NMeDha = C=C(NC)C(=O)O

Experiments:
Assay in all cases: NCI tumour cell line growth inhibition, 48 h; in the data active = GI50 below about 0.43 µM; inactive = the rest
MALME-3M melanoma = test system: MALME-3M melanoma
HOP-62 NSCLC = test system: HOP-62 NSCLC
786-0 renal = test system: 786-0 renal
MCF7 breast = test system: MCF7 breast
SF-539 CNS = test system: SF-539 CNS
LOX IMVI melanoma = test system: LOX IMVI melanoma
HT29 colon = test system: HT29 colon
RXF 393 renal = test system: RXF 393 renal
SNB-19 CNS = test system: SNB-19 CNS
OVCAR-8 ovarian = test system: OVCAR-8 ovarian
SK-MEL-2 melanoma = test system: SK-MEL-2 melanoma
DU-145 prostate = test system: DU-145 prostate
HOP-92 NSCLC = test system: HOP-92 NSCLC
NCI-H226 lung = test system: NCI-H226 lung
SF-295 CNS = test system: SF-295 CNS
SNB-75 CNS = test system: SNB-75 CNS
IGROV1 ovarian = test system: IGROV1 ovarian
HCC-2998 colon = test system: HCC-2998 colon
SR leukemia = test system: SR leukemia
SF-268 CNS = test system: SF-268 CNS
ACHN renal = test system: ACHN renal
NCI/ADR-RES ovarian = test system: NCI/ADR-RES ovarian
UO-31 renal = test system: UO-31 renal
SW-620 colon = test system: SW-620 colon
TK-10 renal = test system: TK-10 renal
HCT-15 colon = test system: HCT-15 colon
K-562 leukemia = test system: K-562 leukemia
A549 NSCLC = test system: A549 NSCLC
CAKI-1 renal = test system: CAKI-1 renal
T-47D breast = test system: T-47D breast
OVCAR-5 ovarian = test system: OVCAR-5 ovarian
UACC-257 melanoma = test system: UACC-257 melanoma
UACC-62 melanoma = test system: UACC-62 melanoma
NCI-H522 lung = test system: NCI-H522 lung
M14 melanoma = test system: M14 melanoma
MOLT-4 leukemia = test system: MOLT-4 leukemia
COLO 205 colon = test system: COLO 205 colon
SK-OV-3 ovarian = test system: SK-OV-3 ovarian
MDA-MB-231 breast = test system: MDA-MB-231 breast
HS 578T breast = test system: HS 578T breast
BT-549 breast = test system: BT-549 breast
HL-60(TB) leukemia = test system: HL-60(TB) leukemia
SN12C renal = test system: SN12C renal
SK-MEL-28 melanoma = test system: SK-MEL-28 melanoma
PC-3 prostate = test system: PC-3 prostate
EKVX NSCLC = test system: EKVX NSCLC
HCT-116 colon = test system: HCT-116 colon
KM12 colon = test system: KM12 colon
SK-MEL-5 melanoma = test system: SK-MEL-5 melanoma
RPMI-8226 leukemia = test system: RPMI-8226 leukemia
U251 CNS = test system: U251 CNS
CCRF-CEM leukemia = test system: CCRF-CEM leukemia
NCI-H460 lung = test system: NCI-H460 lung
MDA-MB-435 = test system: MDA-MB-435
OVCAR-4 ovarian = test system: OVCAR-4 ovarian
NCI-H23 lung = test system: NCI-H23 lung
OVCAR-3 ovarian = test system: OVCAR-3 ovarian

N#C/C(=C\c1ccccc1)c1nc(-c2cc3ccccc3oc2=O)cs1
82.1 µM: TGI (HS 578T breast)
> 100 µM: TGI (MALME-3M melanoma) | TGI (HOP-62 NSCLC) | TGI (786-0 renal) | TGI (MCF7 breast) | TGI (SF-539 CNS) | TGI (LOX IMVI melanoma) | TGI (HT29 colon) | TGI (RXF 393 renal) | TGI (SNB-19 CNS) | TGI (OVCAR-8 ovarian) | TGI (SK-MEL-2 melanoma) | TGI (DU-145 prostate) | TGI (HOP-92 NSCLC) | TGI (NCI-H226 lung) | TGI (SF-295 CNS) | TGI (SNB-75 CNS) | TGI (IGROV1 ovarian) | TGI (HCC-2998 colon) | TGI (SR leukemia) | TGI (SF-268 CNS) | TGI (ACHN renal) | TGI (NCI/ADR-RES ovarian) | TGI (UO-31 renal) | TGI (SW-620 colon) | TGI (TK-10 renal) | TGI (HCT-15 colon) | TGI (K-562 leukemia) | TGI (A549 NSCLC) | TGI (CAKI-1 renal) | TGI (T-47D breast) | TGI (OVCAR-5 ovarian) | TGI (UACC-257 melanoma) | TGI (UACC-62 melanoma) | TGI (NCI-H522 lung) | TGI (M14 melanoma) | TGI (MOLT-4 leukemia) | TGI (COLO 205 colon) | TGI (SK-OV-3 ovarian) | TGI (MDA-MB-231 breast) | TGI (HL-60(TB) leukemia) | TGI (SN12C renal) | TGI (SK-MEL-28 melanoma) | TGI (PC-3 prostate) | TGI (EKVX NSCLC) | TGI (HCT-116 colon) | TGI (KM12 colon) | TGI (SK-MEL-5 melanoma) | TGI (RPMI-8226 leukemia) | TGI (U251 CNS) | TGI (CCRF-CEM leukemia) | TGI (NCI-H460 lung) | TGI (MDA-MB-435) | TGI (OVCAR-4 ovarian)
77.1 µM: TGI (BT-549 breast)

C=C1C(=O)N[C@H](C)C(=O)N[C@@H](CC(C)C)C(=O)N[C@@H](C(=O)O)[C@H](C)C(=O)N[C@@H](CCCN=C(N)N)C(=O)N[C@@H](/C=C/C(C)=C/[C@H](C)[C@H](Cc2ccccc2)OC)[C@H](C)C(=O)N[C@@H](C(=O)O)CCC(=O)N1C (R[Adda][d(γGlu)][NMeDha][dA]L[dAsp(3S-Me)]-OH; lactam N-7)
> 5 µM: TGI (HOP-62 NSCLC) | TGI (786-0 renal) | TGI (MCF7 breast) | TGI (SF-539 CNS) | TGI (LOX IMVI melanoma) | TGI (HT29 colon) | TGI (RXF 393 renal) | TGI (SNB-19 CNS) | TGI (OVCAR-8 ovarian) | TGI (SK-MEL-2 melanoma) | TGI (DU-145 prostate) | TGI (HOP-92 NSCLC) | TGI (NCI-H226 lung) | TGI (SF-295 CNS) | TGI (SNB-75 CNS) | TGI (IGROV1 ovarian) | TGI (HCC-2998 colon) | TGI (SR leukemia) | TGI (SF-268 CNS) | TGI (NCI/ADR-RES ovarian) | TGI (UO-31 renal) | TGI (SW-620 colon) | TGI (TK-10 renal) | TGI (HCT-15 colon) | TGI (K-562 leukemia) | TGI (A549 NSCLC) | TGI (CAKI-1 renal) | TGI (T-47D breast) | TGI (OVCAR-5 ovarian) | TGI (UACC-257 melanoma) | TGI (UACC-62 melanoma) | TGI (NCI-H522 lung) | TGI (M14 melanoma) | TGI (MOLT-4 leukemia) | TGI (COLO 205 colon) | TGI (SK-OV-3 ovarian) | TGI (MDA-MB-231 breast) | TGI (HS 578T breast) | TGI (BT-549 breast) | TGI (HL-60(TB) leukemia) | TGI (SN12C renal) | TGI (SK-MEL-28 melanoma) | TGI (PC-3 prostate) | TGI (EKVX NSCLC) | TGI (HCT-116 colon) | TGI (KM12 colon) | TGI (SK-MEL-5 melanoma) | TGI (RPMI-8226 leukemia) | TGI (NCI-H23 lung) | TGI (OVCAR-3 ovarian) | TGI (NCI-H460 lung) | TGI (MDA-MB-435) | TGI (OVCAR-4 ovarian)
inactive: GI50 (HOP-62 NSCLC) > 5 µM | GI50 (786-0 renal) > 5 µM | GI50 (MCF7 breast) > 5 µM | GI50 (SF-539 CNS) > 5 µM | GI50 (LOX IMVI melanoma) > 5 µM | GI50 (HT29 colon) > 5 µM | GI50 (RXF 393 renal) > 5 µM | GI50 (SNB-19 CNS) > 5 µM | GI50 (OVCAR-8 ovarian) > 5 µM | GI50 (SK-MEL-2 melanoma) > 5 µM | GI50 (DU-145 prostate) > 5 µM | GI50 (HOP-92 NSCLC) > 5 µM | GI50 (NCI-H226 lung) > 5 µM | GI50 (SF-295 CNS) > 5 µM | GI50 (SNB-75 CNS) > 5 µM | GI50 (HCC-2998 colon) > 5 µM | GI50 (SR leukemia) 1.19 µM | GI50 (SF-268 CNS) > 5 µM | GI50 (NCI/ADR-RES ovarian) > 5 µM | GI50 (UO-31 renal) > 5 µM | GI50 (SW-620 colon) > 5 µM | GI50 (TK-10 renal) > 5 µM | GI50 (HCT-15 colon) > 5 µM | GI50 (K-562 leukemia) > 5 µM | GI50 (A549 NSCLC) 4.68 µM | GI50 (CAKI-1 renal) > 5 µM | GI50 (T-47D breast) > 5 µM | GI50 (OVCAR-5 ovarian) > 5 µM | GI50 (UACC-257 melanoma) > 5 µM | GI50 (UACC-62 melanoma) > 5 µM | GI50 (NCI-H522 lung) 4.94 µM | GI50 (M14 melanoma) > 5 µM | GI50 (MOLT-4 leukemia) > 5 µM | GI50 (COLO 205 colon) > 5 µM | GI50 (SK-OV-3 ovarian) > 5 µM | GI50 (MDA-MB-231 breast) > 5 µM | GI50 (HS 578T breast) > 5 µM | GI50 (BT-549 breast) > 5 µM | GI50 (HL-60(TB) leukemia) > 5 µM | GI50 (SN12C renal) > 5 µM | GI50 (SK-MEL-28 melanoma) > 5 µM | GI50 (PC-3 prostate) > 5 µM | GI50 (EKVX NSCLC) > 5 µM | GI50 (HCT-116 colon) > 5 µM | GI50 (KM12 colon) > 5 µM | GI50 (SK-MEL-5 melanoma) > 5 µM | GI50 (RPMI-8226 leukemia) > 5 µM | GI50 (NCI-H23 lung) > 5 µM | GI50 (OVCAR-3 ovarian) > 5 µM | GI50 (NCI-H460 lung) > 5 µM | GI50 (MDA-MB-435) > 5 µM | GI50 (OVCAR-4 ovarian) > 5 µM
active: GI50 (IGROV1 ovarian) 0.305 µM
